Source: US5876715A, “Antibodies that bind novel carbohydrate ligands (myelorollins) that cause E-selectin dependent cell rolling, and uses thereof” (The Biomembrane Institute, priority 1996, dated 1999)
“Also recorded” adds a separate entry of the source.

Test system: E-selectin-expressing CHO cells
Experiment: Static adhesion of E-selectin-expressing CHO cells to gangliosides coated on polystyrene beads affixed to glass slides
Format: cell-based, Chinese hamster
Details: static conditions, ganglioside coated on polystyrene beads affixed on glass slides
Protocol: Polystyrene beads (1 μm diameter) were spread and affixed to glass microscope slides as described in Materials & Methods, added with 100 ng of poly-LacNac ganglioside dissolved in isopropanol-hexane-water (50:45:10), allowed to dry for 1 hr, and immersed in PBS containing 2% BSA. The slides were placed in Petri dishes and overlaid with RPMI medium containing E-selectin-expressing CHO cells (1×10^5 /cells mL). After 10 min incubation, slides were washed with PBS and total numbers of cells adhered on beads were counted. Each point represents one experiment. Horizontal lines indicate arithmetic means.
Gangliosides coated on polystyrene beads affixed on glass slides as described above and placed in petri dishes were incubated with E-selectin-expressing CHO cells in 1% FCS-RPMI medium. After 30 min, slides were washed 3 times with PBS, and numbers of adherent cells were counted under a microscope.
Polystyrene latex beads were affixed on glass microscope slides, added with 1 nmol of ganglioside fraction dissolved in isopropanol-hexane-water (50:45:10), allowed to dry for 1 hr, and then immersed in PBS(+) containing 1% bovine serum albumin. The slides were placed in Petri dishes containing permanently E-selectin-expressing CHO cells (1×10^5) in RPMI medium. After 30 min. incubation, slides were washed with PBS and total numbers of cells adhered on the affixed beads were counted. Sdiy^2 is sialyl-Le^x -Le^x (VI^3 NeuAcV^3 FucIII^3 FucnLc6 Cer).
Static adhesion assay using polystyrene latex beads: In order to observe static adhesion with the same matrix used for dynamic adhesion assay, the following procedure was used. Polystyrene latex beads of 1 μm or 4 μm diameter (IDC Spheres™; IDC, Portland, Oreg.), affixed to objective microscope slides, were used as carriers of poly-LacNAc GSLs. 30 μL of the 4 μm diameter bead suspension (containing 2×10^9beads/mL) or 60 μL of 1 μm bead suspension (containing 1×10^11 beads/mL) were placed in Eppendorf tubes and washed with absolute ethanol 3×. Sedimented 4 μm beads were suspended in […] ethanol, and sedimented 1 μm beads were suspended in 2 mL ethanol. 1 μL aliquots of these suspensions were placed on freshly opened microscope slides (Labcraft Superfrost® Plus, Curtin Matheson Scientific, Houston, Tex.). Beads were distributed homogeneously on the glass surface within a circular spot with diameter ≈1 cm. Slides were heated at 150° C. for 50 sec, which caused the beads to adhere strongly to the surface such that they could not be washed off by water stream at various velocities. Gangliosides dissolved in isopropanol-hexane-water at the same molar concentration were applied to latex beads affixed to the slides; namely, 1 μL aliquots containing 50-100 ng ganglioside were placed on the center of the circular spot. The ganglioside thus became affixed to the bead surface. Plates were immersed in 3% BSA in PBS for 1 hr at room temp, and washed 3× with PBS containing Ca^2+ /Mg^2+.
Plates were overlaid with 5×10^5 CHO cells freshly harvested and suspended in RPMI culture medium for 15 min without moving. Washing with RPMI 3× was usually sufficient to eliminate non-adherent cells from beads. However, careful microscopic examination had to be repeated until the cells placed on control polystyrene beads were washed out. Plates were then fixed with 1% glutaraldehyde in PBS and number of cells adhered to the layer of poly-LacNAc ganglioside-coated beads were counted.

Row | Substance | adhesion of E-selectin-expressing CHO cells (number of cells adhered on beads) | other results
1 | VI^3 NeuAcnLc6 Cer [Fr. 7] | no adhesion | adhesion of E-selectin-expressing CHO cells (number of cells adhered on beads) (listed as Str. 1): did not bind
2 | VI^3 NeuAcV^3 FucIII^3 FucnLc6 Cer [SLe^x -Le^x, reference compound] | greatest cell adhesion; also recorded: highest adhesion; also recorded: slightly higher adhesion than Fr. 13-1; also recorded: highest binding; also recorded: higher number of E-selectin-expressing cells adhered | adhesion of E-selectin-expressing CHO cells (number of cells adhered on beads) (listed as Str. 3): much higher number of cells bound; also recorded: much higher adhesion than myelorollin
3 | VIII^3 NeuAcV^3 FucnLc8 Cer [Fr. 10-1] | much weaker adhesion than Fr. 13-1 or Fr. 14 | adhesion of E-selectin-expressing CHO cells (number of cells adhered on beads) (listed as Str. 4): do not show appreciable adhesion
4 | X^3 NeuAcVII^3 FucnLc10 Cer [Fr. 12-2] | much weaker adhesion than Fr. 13-1 or Fr. 14 | adhesion of E-selectin-expressing CHO cells (number of cells adhered on beads) (listed as Str. 6): do not show appreciable adhesion
5 | X^3 NeuAcVII^3 FucV^3 FucnLc10 Cer [Fr. 13-1] | less than numbers binding to Str. 3 | 
6 | VIII^3 NeuAcIII^3 FucnLc8 Cer [Fr. 10-2] | much weaker adhesion than Fr. 13-1 or Fr. 14 | 
